Assay [1] concerns Sox2, Gli1, Yap1 mRNA in H1650 cells. As to the kind of experiment: QRT-PCR assay for stem cell transcription factors. Type of assay: cell-based. The settings on record: H1650, 72 hours. As to the method: (§1) Given the effects of HDAC11 inhibition on stem-like side population cells, the effects on the expression of stem cell transcription factors was determined using QRT-PCR. A549 or H1650 cells were plated in 60 mm cell culture dishes (120,000 cells). The next day, HDAC11 inhibitors were added at various concentrations and incubated for 72 hours. For the siRNA experiments, A549 cells were plated in 60 mm cell culture dishes (120,000 cells per dish). The siRNAs (Santa Cruz Biotechnologies sc-106896 or ThermoFisher Scientific Cat#4392420) were transfected at a concentration of 100 and 150 pmoles into cells using Oligofectamine reagent (Invitrogen) as per manufacturer's protocol. A non-targeting siRNA (Ambion AM4635) was used as a control for all the transfection experiments. The cells were harvested after 72 hours post transfection. At the end of the treatments, cells were scraped, lysed and total RNA was isolated by RNeasy miniprep kit from Qiagen following the manufacturer's protocol (RNeasy mini kit Cat No. 74104). 1 μg of RNA was converted into cDNA using iScript cDNA synthesis kit (BioRad) in a 20 μl total reaction volume. Levels of mRNA were further analyzed using quantitative real time-PCR (qRT-PCR) that was performed in CFX96 Real time system using BioRad iQ SYBR Green supermix. The reaction was set with 5 μl of SYBR Green, 1 μl of 1 μM Forward primer, 1 μl of 1 μM Reverse primer, 0.5 μl of cDNA and 4.5 μl of water in a total 12 μl reaction. Data was normalized using GAPDH as an internal control and fold change was calculated by 2^−Delta-DeltaCt method. First the Delta-Ct was calculated (Delta-Ct=Ct Gene−Ct GAPDH). Next Delta-Delta-Ct was calculated (Delta-Delta-Ct=Delta-Ct treatment−Delta-Ct control). Finally fold change was calculated by 2^−Delta-DeltaCt.

The test system of assay [2] is Sox2, Gli1, Yap1 mRNA in A549 cells. As to the kind of experiment: QRT-PCR assay for stem cell transcription factors. In kind it is cell-based. The settings on record: A549, 72 hours. As to the method:
as §1

For a further assay, the target named is HDAC1 (Homo sapiens (Human), UniProt Q13547). Nature of the assay: HDAC inhibition assay, electrophoretic mobility shift (Nanosyn). The settings on record: read-out: HDAC Biochemical IC50 HDAC1. As to the method: (§2) This example describes in vitro inhibition properties of exemplary HDAC11 inhibitors for various HDACs. HDAC inhibition assays were performed using an electrophoretic mobility shift assay at Nanosyn, Inc. (Santa Clara, Calif.). Full length human recombinant HDAC proteins were expressed in the baculoviral system and purified by affinity chromatography. A human recombinant HDAC3 was co-expressed with nuclear receptor corepressor (Ncor2). The following peptide substrates were used: FAM-RHKK(Ac)-NH2 for HDAC3, HDAC6 and HDAC8; FITC-H3K27(Ac)-NH2 for HDAC1, HDAC2 and HDAC10; FAM-RHKK(tri-fluor-Ac)-NH2 for HDAC4, HDAC5, HDAC7, HDAC9 and HDAC11. Reactions consisting of compound, enzyme, and substrate were performed in reaction buffer (comprised of 100 mM HEPES, pH7.5, 25 mM KCl, 0.1% bovine serum albumin, 0.01% Triton X-100) at 25° C. and quenched by the addition of termination buffer (100 mM HEPES, pH7.5, 0.01% Triton X-100, 0.05% SDS). The fluorescence intensity of the electrophoretically separated de-acetylated product and substrate peptide were measured and analyzed using the LabChip® 3000 microfluidic electrophoresis instrument (Perkin Elmer/Caliper Life Sciences). The IC50 values of inhibitors were determined by fitting the %-inhibition curves with 4 parameter dose-response model using XLfit 4 software (IDBS).
Chain of HDAC1 (Q13547 whole entry): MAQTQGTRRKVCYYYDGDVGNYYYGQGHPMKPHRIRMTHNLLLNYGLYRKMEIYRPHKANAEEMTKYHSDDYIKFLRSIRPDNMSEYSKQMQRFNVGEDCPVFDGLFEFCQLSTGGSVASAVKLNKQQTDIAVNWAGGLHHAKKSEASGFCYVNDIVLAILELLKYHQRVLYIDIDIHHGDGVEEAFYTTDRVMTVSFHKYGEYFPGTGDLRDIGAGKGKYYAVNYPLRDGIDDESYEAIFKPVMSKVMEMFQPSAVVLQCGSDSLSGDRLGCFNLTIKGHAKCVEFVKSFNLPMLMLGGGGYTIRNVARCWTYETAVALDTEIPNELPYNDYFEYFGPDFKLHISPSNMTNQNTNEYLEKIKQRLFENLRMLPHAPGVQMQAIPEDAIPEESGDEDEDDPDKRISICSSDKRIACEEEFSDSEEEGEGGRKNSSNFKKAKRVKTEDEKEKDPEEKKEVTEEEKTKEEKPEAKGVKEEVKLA
On the technique in general: Mobility shift assays separate free from complexed probe on a gel.

For another assay, the target named is HDAC6 (Homo sapiens (Human), UniProt Q9UBN7). The assay is described as above. The settings on record: read-out: HDAC Biochemical IC50 HDAC6. The protocol:
as §2

Another assay deals with HDAC5 (Homo sapiens (Human), UniProt Q9UQL6). The description is as above. The settings on record: read-out: HDAC Biochemical IC50 HDAC5. As to the method: as §2
Another assay has as its target HDAC4 (Homo sapiens (Human), UniProt P56524). The assay is described as above. The settings on record: read-out: HDAC Biochemical IC50 HDAC4. As to the method: as §2
Another assay addresses HDAC9 (Homo sapiens (Human), UniProt Q9UKV0). The assay is described as above. To be noted: read-out: HDAC Biochemical IC50 HDAC9. The protocol: as §2
A further assay has as its target HDAC7 (Homo sapiens (Human), UniProt Q8WUI4). Described as above. To be noted: read-out: HDAC Biochemical IC50 HDAC7. The protocol: as §2
A further assay concerns the target HDAC8 (Homo sapiens (Human), UniProt Q9BY41). The assay is described as above. To be noted: read-out: HDAC Biochemical IC50 HDAC8. As to the method:
as §2

The target of another assay is HDAC2 (Homo sapiens (Human), UniProt Q92769). Described as above. The settings on record: read-out: HDAC Biochemical IC50 HDAC2. As to the method:
as §2

The target of assay [3] is HDAC3 co-expressed with nuclear receptor corepressor (Ncor2) (Homo sapiens (Human), UniProt O15379). The assay is described as above. To be noted: read-out: HDAC Biochemical IC50 HDAC3. As to the method: as §2
Chain of HDAC3 co-expressed with nuclear receptor corepressor (Ncor2) (O15379 whole entry): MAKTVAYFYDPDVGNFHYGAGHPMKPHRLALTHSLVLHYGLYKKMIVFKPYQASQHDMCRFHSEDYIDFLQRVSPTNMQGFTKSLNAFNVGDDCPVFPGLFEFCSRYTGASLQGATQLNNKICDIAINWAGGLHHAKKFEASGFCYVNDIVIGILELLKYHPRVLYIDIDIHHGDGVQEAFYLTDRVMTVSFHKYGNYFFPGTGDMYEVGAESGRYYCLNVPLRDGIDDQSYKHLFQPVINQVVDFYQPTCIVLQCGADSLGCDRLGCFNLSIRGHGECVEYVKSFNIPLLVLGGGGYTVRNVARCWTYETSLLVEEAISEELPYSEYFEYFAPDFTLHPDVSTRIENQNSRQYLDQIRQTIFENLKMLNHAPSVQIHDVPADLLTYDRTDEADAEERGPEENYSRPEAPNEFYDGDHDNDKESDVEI
Chain of HDAC3 co-expressed with nuclear receptor corepressor (Ncor2) (Q9Y618 395-489 partner): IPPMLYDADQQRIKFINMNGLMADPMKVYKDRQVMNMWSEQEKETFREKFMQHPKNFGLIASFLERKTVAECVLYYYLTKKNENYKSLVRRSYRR
The next assay concerns the target HDAC10 (Homo sapiens (Human), UniProt Q969S8). The description is as above. The settings on record: read-out: HDAC Biochemical IC50 HDAC10. The protocol:
as §2

Another assay concerns the target HDAC11 (Homo sapiens (Human), UniProt Q96DB2). The description is as above. The settings on record: for selectivity over HDACs 1-10: HDAC11 versus HDACs 1-10; for IC50: read-out: HDAC Biochemical IC50 HDAC11. Type of assay: biochemical. As to the method:
as §2

The results in this text go back to patent publication US10508088B2, “Methods using HDAC11 inhibitors” (FORMA Therapeutics, Inc., priority 2016, dated 2019).

Chain of HDAC11 (Q96DB2 whole entry): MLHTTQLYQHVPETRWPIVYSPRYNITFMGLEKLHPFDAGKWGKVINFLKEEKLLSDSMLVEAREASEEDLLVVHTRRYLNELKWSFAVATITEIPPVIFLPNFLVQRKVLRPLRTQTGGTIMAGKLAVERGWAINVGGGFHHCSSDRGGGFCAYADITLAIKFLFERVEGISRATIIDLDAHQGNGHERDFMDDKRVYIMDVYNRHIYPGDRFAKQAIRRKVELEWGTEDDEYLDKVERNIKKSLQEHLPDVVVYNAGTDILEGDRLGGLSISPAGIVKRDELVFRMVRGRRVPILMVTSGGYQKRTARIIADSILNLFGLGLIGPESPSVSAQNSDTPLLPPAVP
Chain of HDAC8 (Q9BY41 whole entry): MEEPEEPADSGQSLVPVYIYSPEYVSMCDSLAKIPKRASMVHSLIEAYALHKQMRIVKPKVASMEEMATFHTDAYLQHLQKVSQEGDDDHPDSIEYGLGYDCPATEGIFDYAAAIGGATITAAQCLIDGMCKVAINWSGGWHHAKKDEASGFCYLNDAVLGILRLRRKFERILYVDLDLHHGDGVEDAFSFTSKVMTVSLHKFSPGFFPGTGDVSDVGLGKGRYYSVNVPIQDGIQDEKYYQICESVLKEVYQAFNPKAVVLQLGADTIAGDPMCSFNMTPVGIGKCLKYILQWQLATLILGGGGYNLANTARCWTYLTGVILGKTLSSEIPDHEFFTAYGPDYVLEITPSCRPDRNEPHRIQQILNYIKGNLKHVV
Chain of HDAC9 (Q9UKV0 whole entry): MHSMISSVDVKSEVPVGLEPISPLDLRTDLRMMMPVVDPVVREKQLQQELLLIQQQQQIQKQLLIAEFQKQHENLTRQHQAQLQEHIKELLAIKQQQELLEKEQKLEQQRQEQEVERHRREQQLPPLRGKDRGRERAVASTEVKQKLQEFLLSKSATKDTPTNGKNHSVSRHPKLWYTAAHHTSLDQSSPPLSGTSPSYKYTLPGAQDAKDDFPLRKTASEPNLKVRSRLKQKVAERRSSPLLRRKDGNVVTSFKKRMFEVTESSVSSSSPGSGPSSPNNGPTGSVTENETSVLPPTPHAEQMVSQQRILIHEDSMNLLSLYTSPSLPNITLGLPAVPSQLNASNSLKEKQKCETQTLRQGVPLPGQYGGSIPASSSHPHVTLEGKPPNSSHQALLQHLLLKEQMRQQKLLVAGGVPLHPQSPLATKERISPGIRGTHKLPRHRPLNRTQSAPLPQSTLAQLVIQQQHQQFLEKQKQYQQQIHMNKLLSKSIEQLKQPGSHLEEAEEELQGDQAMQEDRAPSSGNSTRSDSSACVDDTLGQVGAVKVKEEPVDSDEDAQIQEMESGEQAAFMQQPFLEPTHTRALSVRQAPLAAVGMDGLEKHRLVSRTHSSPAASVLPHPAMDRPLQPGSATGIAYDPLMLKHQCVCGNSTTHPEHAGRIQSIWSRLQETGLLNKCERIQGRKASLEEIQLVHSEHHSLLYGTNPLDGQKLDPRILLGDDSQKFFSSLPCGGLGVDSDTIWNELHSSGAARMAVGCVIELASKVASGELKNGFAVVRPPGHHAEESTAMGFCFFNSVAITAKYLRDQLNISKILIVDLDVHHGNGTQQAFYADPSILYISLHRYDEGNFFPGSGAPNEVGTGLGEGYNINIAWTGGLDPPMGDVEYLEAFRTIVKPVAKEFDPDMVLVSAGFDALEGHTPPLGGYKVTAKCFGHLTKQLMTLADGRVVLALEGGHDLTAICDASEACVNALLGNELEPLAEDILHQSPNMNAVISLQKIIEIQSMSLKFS
Chain of HDAC2 (Q92769 whole entry): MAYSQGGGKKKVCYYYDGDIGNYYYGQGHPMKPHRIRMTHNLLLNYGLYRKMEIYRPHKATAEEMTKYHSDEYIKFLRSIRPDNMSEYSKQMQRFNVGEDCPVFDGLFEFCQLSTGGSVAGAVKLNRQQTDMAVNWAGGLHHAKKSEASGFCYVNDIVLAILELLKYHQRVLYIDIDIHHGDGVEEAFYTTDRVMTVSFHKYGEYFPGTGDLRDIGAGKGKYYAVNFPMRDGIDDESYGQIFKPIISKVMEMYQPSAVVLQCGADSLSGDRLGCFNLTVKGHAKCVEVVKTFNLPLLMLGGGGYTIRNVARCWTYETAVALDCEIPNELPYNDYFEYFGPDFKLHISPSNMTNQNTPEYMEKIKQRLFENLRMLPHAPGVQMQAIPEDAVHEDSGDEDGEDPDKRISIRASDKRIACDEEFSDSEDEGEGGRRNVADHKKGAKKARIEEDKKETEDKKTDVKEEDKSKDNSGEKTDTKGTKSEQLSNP
Chain of HDAC6 (Q9UBN7 whole entry): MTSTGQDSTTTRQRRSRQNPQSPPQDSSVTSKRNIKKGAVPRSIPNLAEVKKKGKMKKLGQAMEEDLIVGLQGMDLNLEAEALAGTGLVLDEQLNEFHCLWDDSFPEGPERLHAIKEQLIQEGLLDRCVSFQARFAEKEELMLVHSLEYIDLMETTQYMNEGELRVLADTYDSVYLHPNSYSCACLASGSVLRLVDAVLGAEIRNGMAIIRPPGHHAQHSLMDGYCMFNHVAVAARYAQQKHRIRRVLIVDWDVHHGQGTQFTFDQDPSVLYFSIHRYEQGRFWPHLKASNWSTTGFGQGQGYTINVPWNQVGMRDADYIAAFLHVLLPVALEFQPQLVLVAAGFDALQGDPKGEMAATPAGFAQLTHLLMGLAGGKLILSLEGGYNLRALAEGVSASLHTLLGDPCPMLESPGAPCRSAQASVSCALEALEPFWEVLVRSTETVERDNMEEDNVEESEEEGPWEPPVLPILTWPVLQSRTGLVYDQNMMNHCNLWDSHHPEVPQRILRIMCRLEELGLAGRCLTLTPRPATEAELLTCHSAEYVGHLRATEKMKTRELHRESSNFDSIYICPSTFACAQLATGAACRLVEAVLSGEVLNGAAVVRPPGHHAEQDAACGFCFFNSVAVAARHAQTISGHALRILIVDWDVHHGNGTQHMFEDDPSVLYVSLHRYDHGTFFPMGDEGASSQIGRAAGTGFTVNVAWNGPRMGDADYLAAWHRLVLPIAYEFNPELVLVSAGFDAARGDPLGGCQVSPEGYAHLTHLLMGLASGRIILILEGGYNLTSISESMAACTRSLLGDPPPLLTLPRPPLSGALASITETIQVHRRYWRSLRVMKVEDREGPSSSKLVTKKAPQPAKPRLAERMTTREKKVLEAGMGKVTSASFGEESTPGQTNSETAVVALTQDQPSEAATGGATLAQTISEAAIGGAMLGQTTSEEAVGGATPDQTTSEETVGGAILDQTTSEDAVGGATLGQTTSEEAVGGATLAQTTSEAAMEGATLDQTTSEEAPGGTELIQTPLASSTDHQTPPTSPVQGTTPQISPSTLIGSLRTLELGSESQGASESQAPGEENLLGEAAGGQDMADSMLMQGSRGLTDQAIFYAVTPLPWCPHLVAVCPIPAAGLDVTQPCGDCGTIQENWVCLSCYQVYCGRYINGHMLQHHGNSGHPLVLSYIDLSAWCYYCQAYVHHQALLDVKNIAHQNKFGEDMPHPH

By IC50 is commonly meant the concentration at which inhibition is half-maximal. For `O=C(NO)c1cccc(Nc2nc3cc(Cl)c(Cl)cc3o2)c1` [HDTK010, 3-((5,6-dichlorobenzo[d]oxazol-2-yl)amino)-N-hydroxybenzamide], the “expression of Gli1 and Yap1” value in [1] and in assay [2] was “decreased expression” each time. Besides, the “expression of Sox2” value in [1] and in assay [2] was “decreased expression” each time. The IC50 was more than 10 µM on HDAC1; 0.5 to 1 µM on HDAC6; more than 10 µM at HDAC5; more than 10 µM at HDAC4; more than 10 µM on HDAC9; 5 to 10 µM at HDAC7. In addition, the IC50 was 0.5 to 1 µM on HDAC8; more than 10 µM on HDAC2; more than 10 µM in [3]; more than 10 µM at HDAC10; 0.001 to 0.005 µM on HDAC11. Besides, on HDAC11, the “selectivity over HDACs 1-10” value is on record as more than 200 fold.

Turning to `O=C(NO)c1cccc2c1C[C@]1(CCN(Cc3ccc(Cl)c(C(F)(F)F)c3)C1=O)C2` [HDTK054, (S)-1′-(4-chloro-3-(trifluoromethyl)benzyl)-N-hydroxy-2′-oxo-1,3-dihydrospiro[indene-2,3′-pyrrolidine]-4-carboxamide], the “expression of Gli1 and Yap1” value in assay [1] and in assay [2] was “decreased expression” each time. The “expression of Sox2” value in [1] and in [2] was “decreased expression” each time. Besides, the half-maximal inhibitory concentration (IC50) on HDAC1, on HDAC6, on HDAC5, at HDAC4, at HDAC9 and at HDAC7 was more than 10 µM in each case. The IC50 is 5 to 10 µM at HDAC8; more than 10 µM on HDAC2; more than 10 µM in [3]; more than 10 µM at HDAC10; 0.01 to 0.05 µM on HDAC11. Also, the “selectivity over HDACs 1-10” value at HDAC11 is more than 200 fold.
